Consider seven compounds from patent US12157713B2, “Conjugated oligoelectrolytes as antimicrobial agents” (Nanyang Technological University, priority 2018, dated 2024).

The subject of experiment [1] is Escherichia coli FDA control ATCC 25922. Briefly: Single-dose growth inhibition, Ec. Particulars: ATCC25922, 32 μg/mL single dose, n=2, read-out: Growth inhibition Ec. Format: cell-based. The procedure: (§1) Inhibition of bacterial growth was determined by measuring the absorbance at 600 nm (OD600), using a Tecan M1000 Pro monochromator plate reader. Growth inhibition was calculated for each well, relative to the reference growths determined from a negative control (media only) and positive control (bacteria without inhibitors) incubated in the same plate. A single dose of 32 μg/mL of COE (final concentration) was used for each test.
(§2) Percentage growth inhibition of an individual sample was calculated based on growth in a reference well determined from negative controls (media only) and positive controls (bacterial/fungal media without inhibitors). Negative inhibition values indicate that the growth rate (or OD600) is higher compared to the reference growth (bacteria/fungi only, set to 0% inhibition). The growth rates for all bacteria and fungi may vary at −/+10%, which were within the reported normal distribution of bacterial/fungal growth. Any significant variations (or outliers/hits) were identified by the modified Z-Score, and the active compounds were selected by a combination of inhibition values and Z-Score.
(§3) A M(i) value of >|2.5| (absolute) would classify the sample as outliers or hits. Active samples were denoted as compounds with inhibition values equal to or above 80% and absolute Z-Score above |2.5| for either replicate (n=2 on different plates). Partial active samples were denoted as compounds with inhibition values from 50% to <80%, or absolute Z-Score below |2.5|.

Experiment [2] deals with Pseudomonas aeruginosa (PAO1) biofilm. Briefly: Anti-biofilm assay (MBEC plate, crystal violet). The experiment is classed as cell-based. Conditions: P. aeruginosa PAO1 biofilm, 1 hour challenge in M9GC. The protocol: Pseudomonas aeruginosa (PAO1) was grown in Luria-Bertani (LB) broth under shaking (200 rpm) at 37° C. for 16-18 hours. The overnight culture was diluted to 1:200 in M9GC media (M9 medium supplemented with glucose and casamino acids), and 200 μL of diluted culture was added to each well of MBEC plate (Innovotech, Canada). After incubating at 37° C. for 5 hours under shaking (200 rpm), biofilm was formed on the pegs of the MBEC plate. The pegs were then rinsed with 1× phosphate buffered saline (PBS) solution (200 μL per well), and exposed to a two-fold dilution series of COE in M9GC media (200 μL per well). The challenge plate was incubated at 37° C. for 1 hour under shaking (200 rpm), and then the pegs were washed using 200 μL PBS before being dipped into 180 μL 0.1 wt. % crystal violet aqueous solution. After incubating at room temperature for 15 minutes, the pegs were rinsed with PBS twice and transferred to a plate containing 200 μL absolute ethanol in each well for 15 minutes. The biofilm mass was quantified by measuring the absorption of crystal violet/ethanol solution at 550 nm. The minimum biofilm dispersal concentration (MBDC) values were determined as the lowest COE concentration at which biofilm attached on the peg was completely dispersed. The results were repeated in triplicate.

Experiment [3] relates to Klebsiella pneumoniae MDR ATCC 700603. The experiment can be described thus: Single-dose growth inhibition, Kp. Format: cell-based. Particulars: ATCC700603, 32 μg/mL single dose, n=2, read-out: Growth inhibition Kp. The procedure:
as §1, §2, §3

The test system of experiment [4] is Candida albicans ATCC 90028. Briefly: Single-dose growth inhibition, Ca. Format: cell-based. Particulars: ATCC90028, 32 μg/mL single dose, n=2, read-out: Growth inhibition Ca. The protocol: (§4) Growth inhibition of C. albicans was determined by measuring the absorbance at 530 nm (OD530), while the growth inhibition of C. neoformans was determined by measuring the difference in absorbance between 600 and 570 nm (OD600-570), after the addition of resazurin (0.001 wt. % final concentration) and incubation at 35° C. for additional 2 hrs. The absorbance was measured using a Biotek Synergy HTX plate reader. The relative growth inhibition was calculated for each well, relative to that determined from a negative control (media only) and positive control (bacteria without inhibitors) on the same plate as references. A single dose of 32 μg/mL of COE (final concentration) was used for each test.
as §2, §3

Experiment [5] deals with Staphylococcus aureus MRSA ATCC 43300. Briefly: Single-dose growth inhibition, Sa. The experiment is classed as cell-based. Conditions: 32 μg/mL single dose, n=2, read-out: Growth inhibition Sa. The procedure:
as §1, §2, §3

Experiment [6] concerns Staphylococcus aureus 25923. Briefly: MIC against S. aureus 25923. The experiment is classed as cell-based. The protocol:
(§5) The respective minimum inhibition concentration (MIC) of each COE molecule was determined using a broth microdilution method. Briefly, COEs were diluted via a 2-fold dilution series in 100 μL of either Muller Hinton Broth (MHB) for E. coli and S. aureus or Brain Heart Infusion Broth (BHI) for E. faecalis in a 96-well plate to achieve the desired final concentration. Subsequently, each well was inoculated with 100 μL of 1×10^6 colony forming units (CFU) mL^−1 of the respective microorganism in MHB for E. coli or BHI for E. faecalis to achieve an inoculum density of 5×10^5 CFU mL^−1. The plates were then incubated at 37° C. with shaking (200 rpm) for 18 hrs. […] The results were obtained in triplicate.
The antimicrobial effects of COE-D62N and COE-D82N were also tested on the Gram-positive Staphylococcus aureus 25923 and Methicillin-resistant Staphylococcus aureus(MRSA BAA-40), in comparison with vancomycin (FIG. 5b).

Experiment [7] deals with Acinetobacter baumannii ATCC 19606. Briefly: Single-dose growth inhibition, Ab. The experiment is classed as cell-based. Particulars: ATCC19606, 32 μg/mL single dose, n=2, read-out: Growth inhibition Ab. The procedure:
as §1, §2, §3

The test system of the next experiment is E. coli K12. Briefly: MIC by broth microdilution against E. coli K12. The experiment is classed as cell-based. Conditions: Escherichia coli, K12; broth microdilution, MHB, 18 hrs; read-out: MIC against E. coli K12. The procedure: as §5
The MIC values of COE-D4, COE-D6 and COE-D8 against the reference strain E. coli K12, pathogenic E. coli UT189, and the Gram positive pathogen Enterococcus faecalis OG1RF were determined using a broth microdilution method as described in the general method above. The MICs for E. coli K12 were determined to be 128, 16, and 4 μg mL^−1 for COE-D4, COE-D6, and COE-D8, respectively (FIG. 5a). […] This is not surprising as these two organisms differ in the capsular polysaccharides that they expressed, which are known to hinder the uptake of antimicrobials and mitigate their potency (M. A. Campos, et al., Infect. Immun. 2004, 72, 7107-7114). A K-type capsid comprising α2-8-linked sialic acid is excreted by UT189 and is known to be an important virulence factor for this organism (C. Whitfield, et al., Mol. Microbiol. 1999, 31, 1307-1319; G. G. Anderson, et al., Infect. Immun. 2010, 78, 963-975).
In general terms: In broth dilution the organism is exposed to a series of concentrations in liquid medium.

The subject of experiment [8] is Cryptococcus neoformans var. grubii H99; ATCC 208821. The experiment can be described thus: Single-dose growth inhibition, Cn. The experiment is classed as cell-based. Conditions: ATCC208821, 32 μg/mL single dose, n=2, read-out: Growth inhibition Cn. The protocol:
as §4, §2, §3

Experiment [9] deals with Pseudomonas aeruginosa ATCC 27853. Briefly: Single-dose growth inhibition, Pa. The experiment is classed as cell-based. Particulars: ATCC27853, 32 μg/mL single dose, n=2, read-out: Growth inhibition Pa. The protocol: as §1, §2, §3
Experiment [10] relates to organism classes (Gram-negative, Gram-positive and fungi). Briefly: Single-dose screening summary by organism class. The experiment is classed as cell-based. Particulars: 32 μg/mL; 0 = no activity. The protocol: as §2
Z-Score analysis was carried out to investigate outliers or hits among the samples. The Z-Score was calculated based on the sample population using a modified Z-Score method which accounts for possible skewed sample population. The modified method uses median and MAD ([…]) instead of average and standard deviation, and a scaling factor (Iglewicz, B. & Hoaglin, D. C. Volume 16: How to Detect and Handle Outliers. The ASQC Basic Reference in Quality Control: Statistical Techniques, 1993). The equation to calculate the modified Z-Score value is as follow: […]
as §3

The subject of another experiment is E. faecalis. Particulars: literature (Tran et al. 2013); cited from earlier work.
For experiment [11], the system named is multidrug-resistant Gram-negative bacteria. Particulars: literature (Falagas et al. 2005); cited from earlier work.

Broadly, the inhibition is how much of the control response was suppressed. What is called MIC is the lowest concentration found to suppress growth. For the compound `C[N+](C)(C)CC[N+](C)(C)CCCCCCOc1ccc(/C=C/c2ccc(/C=C/c3ccc(OCCCCCC[N+](C)(C)CC[N+](C)(C)C)cc3)cc2)cc1` [COE-T62], the inhibition at 32 µg/mL is above 80% in experiment [1]; below 50% in experiment [3]; above 80% in experiment [4]; above 80% in experiment [5]; below 50% in experiment [7]; above 80% in experiment [8]. Further, the inhibition at 32 µg/mL in experiment [9] is below 50%. Besides, the “Minimum biofilm dispersal concentration” value in experiment [2] is 8 µg/mL. Further, the MIC in [6] came out at 2 µg/mL; in the experiment with E. coli K12, 16 µg/mL. Moreover, the “Activity: number of organism classes the compound has been found active against” value in [10] is 3.
In the case of `CC(C)(O/N=C(\C(=O)N[C@@H]1C(=O)N2C(C(=O)[O-])=C(C[n+]3ccccc3)CS[C@H]12)c1csc(N)n1)C(=O)O` [Ceftazidime], in experiment [2], the “Minimum biofilm dispersal concentration” value is above 512 µg/mL.
Turning to `O=C(O)c1cn(C2CC2)c2cc(N3CCNCC3)c(F)cc2c1=O` [Ciprofloxacin], in experiment [2], the “Minimum biofilm dispersal concentration” value was above 512 µg/mL.
On the same count and under the same terms, next, `NC[C@H]1O[C@H](O[C@H]2[C@H](O)[C@@H](O[C@H]3O[C@H](CO)[C@@H](O)[C@H](N)[C@H]3O)[C@H](N)C[C@@H]2N)[C@H](N)C[C@@H]1O` [Tobramycin]: above 512 µg/mL.
Consider `CCCCCCCCCC(=O)N[C@@H](Cc1c[nH]c2ccccc12)C(=O)N[C@H](CC(N)=O)C(=O)N[C@@H](CC(=O)O)C(=O)N[C@@H]1C(=O)NCC(=O)N[C@@H](CCCN)C(=O)N[C@@H](CC(=O)O)C(=O)N[C@H](C)C(=O)N[C@@H](CC(=O)O)C(=O)NCC(=O)N[C@H](CO)C(=O)N[C@@H]([C@H](C)CC(=O)O)C(=O)N[C@@H](CC(=O)c2ccccc2N)C(=O)O[C@@H]1C` [daptomycin], for which, in the experiment on E. faecalis, the “MIC against E. faecalis in brain heart infusion media” value is recorded as “around 3 μg mL^−1”.
Turning to Colistin, the “Minimum biofilm dispersal concentration” value in experiment [2] was found to be 4 µg/mL. Moreover, the “MIC against multidrug-resistant Gram-negative bacteria (in general)” value in experiment [11] is at most 4 µg/mL.
On to Gentamicin, for which the “Minimum biofilm dispersal concentration” value in experiment [2] was above 512 µg/mL.
